Measured values from US20240002391A1, “4-ALKOXYPYRROLO[2,1-F][1,2,4]TRIAZINES AND PREPARATION AND USES THEREOF” (BioSplice Therapeutics, Inc., priority 2022, published 2024).

Target: recombinant DYRK1A kinase (Homo sapiens (Human), UniProt Q13627)
Assay: DYRK1A kinase assay (Ser/Thr 18 peptide Z-lyte FRET)
Format: biochemical
Settings: DYRK1A kinase activity, Z-lyte Ser/Thr 18 peptide, 15 μM ATP; method text calls the value IC50; read-out: EC50 (the source's name)
In short: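 Steps: combine 0.25 μg/mL kinase, 15 μM ATP and 4 μM peptide with test compound; incubate 1 h at room temperature; add diluted development reagent for another hour; read coumarin and fluorescein emission at Ex 400. The emission ratio yields percent phosphorylation, from which IC50 is derived.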

Structure (SMILES) | IC50 [nM]
COc1nc(N[C@@H]2CCN(C3COC3)CC2(F)F)nn2ccc(-c3ccc4nnn(CC(F)F)c4c3)c12 [Compound 785, (R)—N-(3,3-Difluoro-1-(oxetan-3-yl)piperidin-4-yl)-5-(1-(2,2-difluoroethyl)-1H-benzo[d][1,2,3]triazol-6-yl)-4-methoxypyrrolo[2,1-f][1,2,4]triazin-2-amine] | 0.5
COc1nc(N[C@@H]2CCN(C(C)=O)CC2(F)F)nn2ccc(-c3cc(F)c4nnn(CC(F)F)c4c3)c12 [Compound 821, (R)-1-(4-((5-(1-(2,2-Difluoroethyl)-4-fluoro-1H-benzo[d][1,2,3]triazol-6-yl)-4-methoxypyrrolo[2,1-f][1,2,4]triazin-2-yl)amino)-3,3-difluoropiperidin-1-yl)ethan-1-one] | 1.9
COc1nc(NC2CC3(CCN(C(C)=O)CC3)C2)nn2ccc(-c3ccn4nccc4c3)c12 [Compound 39, 1-(2-((4-Methoxy-5-(pyrazolo[1,5-a]pyridin-5-yl)pyrrolo[2,1-f][1,2,4]triazin-2-yl)amino)-7-azaspiro[3.5]nonan-7-yl)ethan-1-one] | 2.9
COc1nc(N[C@H]2CCN(CCO)C[C@H]2F)nn2ccc(-c3cc(F)c4nc(C)n(CC(F)F)c4c3)c12 [Compound 519, 2-((3R,4S)-4-((5-(1-(2,2-Difluoroethyl)-4-fluoro-2-methyl-1H-benzo[d]imidazol-6-yl)-4-methoxypyrrolo[2,1-f][1,2,4]triazin-2-yl)amino)-3-fluoropiperidin-1-yl)ethan-1-ol] | 2.7
COc1nc(N[C@H]2CCN(C(C)=O)C[C@H]2F)nn2cc(F)c(-c3ccc4ncccc4c3)c12 [Compound 1061, 1-((3R,4S)-3-Fluoro-4-((6-fluoro-4-methoxy-5-(quinolin-6-yl)pyrrolo[2,1-f][1,2,4]triazin-2-yl)amino)piperidin-1-yl)ethan-1-one] | 0.9
COc1nc(N[C@H]2C[C@@](C)(NC(C)=O)C2)nn2ccc(-c3ccc4ncccc4c3)c12 [Compound 288, N-(cis-3-((4-Methoxy-5-(quinolin-6-yl)pyrrolo[2,1-f][1,2,4]triazin-2-yl)amino)-1-methylcyclobutyl)acetamide] | 2.6
COc1nc(N[C@H]2CC[C@@H](O)CC2)nn2ccc(-c3ccc4nnn(CC(F)F)c4c3)c12 [Compound 718, cis-4-((5-(1-(2,2-Difluoroethyl)-1H-benzo[d][1,2,3]triazol-6-yl)-4-methoxypyrrolo[2,1-f][1,2,4]triazin-2-yl)amino)cyclohexan-1-ol] | 0.5
COc1nc(N[C@@H]2CCN(C)C[C@@H]2F)nn2ccc(-c3cnc4nccn4c3)c12 [Compound 267, N-((3S,4R)-3-Fluoro-1-methylpiperidin-4-yl)-5-(imidazo[1,2-a]pyrimidin-6-yl)-4-methoxypyrrolo[2,1-f][1,2,4]triazin-2-amine] | 4.8
COc1nc(N[C@H]2CC[C@@H](C(C)(C)O)CC2)nn2ccc(-c3ccc4nccnc4c3)c12 [Compound 341, 2-(cis-4-((4-methoxy-5-(quinoxalin-6-yl)pyrrolo[2,1-f][1,2,4]triazin-2-yl)amino)cyclohexyl)propan-2-ol] | 9.3
COc1nc(NC2CCN(C(C)=O)CC2)nn2ccc(-c3ccc4nc(C)n(CC(F)F)c4c3)c12 [Compound 122, 1-(4-((5-(1-(2,2-Difluoroethyl)-2-methyl-1H-benzo[d]imidazol-6-yl)-4-methoxypyrrolo[2,1-f]1[1,2,4]triazin-2-yl)amino)piperidin-1-yl)ethan-1-one] | 1.6
COc1nc(N[C@H]2C[C@@](C)(C(=O)NC3CC3)C2)nn2ccc(-c3ccc4nnn(C)c4c3)c12 [Compound 217, cis-N-Cyclopropyl-3-((4-methoxy-5-(1-methyl-1H-benzo[d][1,2,3]triazol-6-yl)pyrrolo[2,1-f][1,2,4]triazin-2-yl)amino)-1-methylcyclobutane-1-carboxamide] | 9.3
COc1nc(N[C@@H]2CCN(C3COC3)CC2(F)F)nn2ccc(-c3cc(F)c4nnn(CC(F)F)c4c3)c12 [Compound 822, (R)—N-(3,3-Difluoro-1-(oxetan-3-yl)piperidin-4-yl)-5-(1-(2,2-difluoroethyl)-4-fluoro-1H-benzo[d][1,2,3]triazol-6-yl)-4-methoxypyrrolo[2,1-f][1,2,4]triazin-2-amine] | 1.8
COc1nc(N[C@@H]2CCCOC2)nn2ccc(-c3cnc4nccn4c3)c12 [Compound 975, (R)-5-(Imidazo[1,2-a]pyrimidin-6-yl)-4-methoxy-N-(tetrahydro-2H-pyran-3-yl)pyrrolo[2,1-f][1,2,4]triazin-2-amine] | 7.6
COc1nc(N[C@H]2CCN(C3COC3)CC2(F)F)nn2ccc(-c3ccc4ncccc4c3)c12 [Compound 322, (S)—N-(3,3-Difluoro-1-(oxetan-3-yl)piperidin-4-yl)-4-methoxy-5-(quinolin-6-yl)pyrrolo[2,1-f][1,2,4]triazin-2-amine] | 6.6
COc1nc(N[C@@H]2CCC(=O)N(C)C2)nn2ccc(-c3ccc4nccnc4c3)c12 [Compound 1097, (R)-5-((4-Methoxy-5-(quinoxalin-6-yl)pyrrolo[2,1-f][1,2,4]triazin-2-yl)amino)-1-methylpiperidin-2-one] | 2.7
CN1CC[C@@H](Nc2nc(OC3COC3)c3c(-c4ccc5ncccc5c4)ccn3n2)C(F)(F)C1 [Compound 1091, (R)—N-(3,3-Difluoro-1-methylpiperidin-4-yl)-4-(oxetan-3-yloxy)-5-(quinolin-6-yl)pyrrolo[2,1-f][1,2,4]triazin-2-amine] | 1.8
CCN1CC[C@@H](Nc2nc(OC)c3c(-c4ccc5nnn(C)c5c4)ccn3n2)C(F)(F)C1 [Compound 627, (R)—N-(1-Ethyl-3,3-difluoropiperidin-4-yl)-4-methoxy-5-(1-methyl-1H-benzo[d][1,2,3]triazol-6-yl)pyrrolo[2,1-f][1,2,4]triazin-2-amine] | 3.9
COc1nc(NC2CCC3(CC2)CN(C(C)=O)C3)nn2ccc(-c3ccc4nc(C)n(CCO)c4c3)c12 [Compound 173, 1-(7-((5-(1-(2-hydroxyethyl)-2-methyl-1H-benzo[d]imidazol-6-yl)-4-methoxypyrrolo[2,1-f][1,2,4]triazin-2-yl)amino)-2-azaspiro[3.5]nonan-2-yl)ethan-1-one] | 1.7
COc1nc(NC2CCN(CC(F)F)CC2)nn2ccc(-c3ccc4ncccc4c3)c12 [Compound 304, N-(1-(2,2-Difluoroethyl)piperidin-4-yl)-4-methoxy-5-(quinolin-6-yl)pyrrolo[2,1-f][1,2,4]triazin-2-amine] | 14.3
COc1nc(NC2CCN(CC(F)(F)F)CC2)nn2ccc(-c3ccc4nccnc4c3)c12 [Compound 363, 4-Methoxy-5-(quinoxalin-6-yl)-N-(1-(2,2,2-trifluoroethyl)piperidin-4-yl)pyrrolo[2,1-f][1,2,4]triazin-2-amine] | 40.1
CNC(=O)c1cnc2ccc(-c3ccn4nc(N[C@H]5CC[C@@H](OC)CC5)nc(OC)c34)cn12 [Compound 439, 6-(4-Methoxy-2-((cis-4-methoxycyclohexyl)amino)pyrrolo[2,1-f][1,2,4]triazin-5-yl)-N-methylimidazo[1,2-a]pyridine-3-carboxamide] | 2.3
COc1nc(N[C@H]2C[C@@](C)(O)C2)nn2ccc(-c3ccc4nnn(CC(F)F)c4c3)c12 [Compound 710, (1s,3s)-3-((5-(1-(2,2-Difluoroethyl)-1H-benzo[d][1,2,3]triazol-6-yl)-4-methoxypyrrolo[2,1-f][1,2,4]triazin-2-yl)amino)-1-methylcyclobutan-1-ol] | 0.9
